Reference: patent US20260306633A1, “A COMBINATION THERAPY FOR CANCER TREATMENT” (Purdue Research Foundation, priority 2023, published 2026)
“And” between values parts separate entries of the source, which are not always exact repeats. Identical values can stand only once. “Also recorded” adds a separate entry of the source. Like-named read-outs stand apart in the source and are kept apart here.

Key:
TNBC cells [1] = test: Combination index (CI) of binary therapy, Chou-Talalay method, CompuSyn software; type: cell-based, human
Procedure: (§1) The calculated CI values are based on 50 nM concentration for the PSs, 50 nM paclitaxel, 500 nM doxorubicin, 25 μM cisplatin, 25 μM fluorouracil, and 500 nM methotrexate.
Cells were grown to confluence in a 96-well plate (9×10^3 cells/well) and co-treated for 24 hours with synthesized photosensitizers (PSs) and chemotherapeutic agents of varying concentrations ranging from 5 nM to 50 μM) in growth media from a stock solution of 10 mM in DMSO (dimethyl sulfoxide, Fisher). After 24-hour treatment, old growth media containing the PSs or compounds were aspirated out and replaced with fresh media. Plates were then positioned below a non-coherent LumaCare LC-122 650 nm light source for 1 minute at an energy fluence rate of 0.96 J/cm^2 and a power of 16 mW/cm^2 (measured using a Newport optical power meter Model 840). Unirradiated cells served as control samples. The following day, cells were washed with pre-warmed PBS, and 11MTT (3-[4,5-dimethyl-thiazol-2-yl]-2.5-diphenyltetrazolium bromide, Sigma, 0.3 mg/mL) in PBS was added to each well. Samples were allowed to incubate for additional 2 hours, after which dark blue crystals formed. DMSO was added to each well and plates were shaken at room temperature for 1 hour to dissolve the purplish-blue formazan crystals. Absorbance values at 570 nm were measured on a microplate reader (BioRad 550). Cell survival was calculated based on the absorbance of the untreated cells alone (as control) and were directly proportional to the number of viable cells in culture. Results were reported as the mean±SD of triplicate measurements.
The combination index (CI) for the binary treatment of TNBC cells with a PS and a chemotherapeutic drug was calculated based on the Chou-Talalay method using CompuSyn software. […] The unified dynamics algorithm uses a minimum of dose-data points to fit the general MAL theory.
as §1

TNBC cells [2] = test: as above; type: cell-based, human; conditions: PS 50 nM + methotrexate 500 μM (footnote 500 nM)
TNBC BT-549 cells = test: Cell survival / cell inhibition (MTT cell cytotoxicity assay) after 24 h treatment with photosensitizer and/or chemotherapeutic agent, dark or light-irradiated; type: cell-based, human; conditions: for viability at 0.1 µM / viability at 0.01 µM: paclitaxel; for viability at 0.1 µM: high end of 10-100 nM, read-out: cell survival, drug only (end of decrease); for viability at 0.01 µM: low end of 10-100 nM, read-out: cell survival, drug only (start of decrease)
human TNBC BT-549 cells = test: Fluorescence microscopy (Hoechst 33258) of cell morphology / cell death pathway; type: cell-based
Procedure: Grayscale images of cells stained with Hoechst 33258. Morphology of (A) untreated unirradiated cells, sham control; (B) illuminated cells; (C-E) cells treated with: PSs (InCLA, CBTN, and CPA) and paclitaxel in the dark; (F-H) PSs, followed by 1 minute light exposure; (I) paclitaxel unirradiated; (J-L) PSs and paclitaxel in the dark; (M-O) PSs co-treated with paclitaxel, then light-exposed; (P-Q) PSs co-treated with doxorubicin, then irradiated; (R) PSs and cisplatin, dark; (S-T) PSs and cisplatin, irradiated; (U) fluorouracil, dark; (V) InCLA with fluorouracil in the dark; (W) light-exposed and, (X-Y) PSs with methotrexate with light. Inserts indicate enlarged view. […] Light dose in 1 minute=0.96 J cm^−2; in 30 seconds=0.48 J cm^−2. Concentrations: PSs=50 nM; paclitaxel=50 nM; doxorubicin=500 nM; cisplatin=25 μM; fluororuracil=25 μM; and, methotrexate=500 nM.
Cells (1 mL aliquots) obtained from a diluted cell suspension were seeded into each well (1.7 cm^2, 8×10^3 cells/well) of a 4-well culture slide (BD Biosciences) and grown to confluence in 5% CO2 at 37° C. for 3-4 days for attachment to the substratum. After aspirating the old growth media, 1 mL of the photosensitizer and chemotherapeutic agents (with appropriate concentrations) in fresh pre-warmed media at 37° C. was added to each well. After compound treatment for 24 hours, cells were washed twice with 1 mL fresh growth media, and then irradiated with light using LumaCare LC-122 as described above. Cells were stained in the dark with Hoechst 33258 (Molecular Probes) in pre-warmed media for 10 minutes at 37° C., washed twice with filtered PBS, then fixed with filtered paraformaldehyde for 15 minutes in the incubator. After thorough liquid aspiration, the wells were removed and allowed to air dry in the dark for 1 hour. Slides were protected with coverslips, whose edges were sealed using clear fast-drying nail polish and allowed to dry at room temperature in the dark for 30 minutes. Images were recorded using fluorescence microscopy (DAPI for Hoechst 350-390 nm excitation and 460-490 nm emission filters) using an upright fluorescence microscope with Retiga imaging 2000R (Nikon Optiphot-2, 20× and 40×) and an image processing Nikon NIS-Elements V4.0 Qimaging software.
To determine the preferred cell death pathway for the binary chemophotodynamic therapy, tracking the hallmarks of apoptosis or necrosis was accomplished using a nuclear stain to monitor chromatin condensation and cellular contraction. TNBC cells are spindle-shaped and nearly round with intact cytoplasm, diffused chromatin, distinct cellular membrane, and large oval nuclei staining dark blue with the nuclear stain (FIG. 18A-B).

[3] = system: human gastric adenocarcinoma AGS cell line; conditions: another study; cited from earlier work
[4] = system: human triple-negative breast cancer (TNBC) BT-549 cells; test: Transmission electron microscopy of cell ultrastructure; type: cell-based; conditions: paclitaxel 50 nM
Procedure: Irregularly shaped nuclear membrane is apparent in treated cells in the dark or in the presence of light. Light dose in 30 seconds=0.48 J cm^−2. Concentrations: PSs=50 nM; paclitaxel=50 nM; and, fluororuracil=25 μM.
Cells were cultured to confluence in a petri dish ([…] in diameter), treated for 24 hrs with 500 nM of PS, then irradiated for 2 minutes as above. After 12 photosensitization 24 hours later, cells were scraped gently in the dark, fixed in 2.5% glutaraldehyde in 0.1M [COMPOUND LEFT OUT] buffer, then post-fixed with 1% osmium tetroxide (containing 0.8% [COMPOUND LEFT OUT], treated with 2% aqueous uranyl acetate, and subsequently dehydrated in gradient concentrations (50-100%) of varying ethanol:water mixtures. The resulting pellets were embedded in resin and consequently cut with an ultramicrotome to a 70 nm thickness, then viewed using Tecnai T20 transmission electron microscope.
Transmission electron micrographs of TNBC cells clearly differentiated distinct cellular compartments, in particular, of nuclear components and plasma membrane during treatment as shown in FIG. 19. A typical normal organelle morphology with smooth-contoured cellular plasma membrane is depicted in TNBC cells irradiated with light without treatment with PS nor chemotherapeutic agent (FIG. 19A). […]

[5] = PS 100 nM + fluorouracil 25 μM, light
[6] = Homo sapiens, BT-549, 24 h, dark
[7] = Homo sapiens, BT-549, 24 h, light

C=Cc1c(C)c2cc3nc(c(CC(=O)OC)c4[nH]c(cc5nc(cc1[nH]2)C(C)=C5CC)c(C)c4C(=O)NCCCCCCNC(=O)CCCCC1SCC2NC(=O)NC21)C(CCC(=O)OC)C3C (centres unmarked) [CBTN, chlorin biotin conjugate]
combination index (CI) with cisplatin (TNBC cells [1]; PS 50 nM + cisplatin 25 μM): 0.99 | synergism vs additive vs antagonism effect with cisplatin (TNBC cells [1]; PS 50 nM + cisplatin 25 μM): (NA) (NA (0.9-1.10), nearly additive) | combination index (CI) with doxorubicin (TNBC cells [1]; PS 50 nM + doxorubicin 500 nM): 2.44 | synergism vs additive vs antagonism effect with doxorubicin (TNBC cells [1]; PS 50 nM + doxorubicin 500 nM): (A) (A (1.45-3.3), antagonism) | ranking of combination partners based on CI, decreasing order (TNBC cells [1]; PS 50 nM + drug): fluorouracil>paclitaxel>cisplatin | combination index (CI) with fluorouracil (TNBC cells [1]; PS 50 nM + fluorouracil 25 μM): 0.48 | synergism vs additive vs antagonism effect with fluorouracil (TNBC cells [1]; PS 50 nM + fluorouracil 25 μM): (S) (S (0.3-0.7), synergism) | combination index (CI) with paclitaxel (TNBC cells [1]; PS 50 nM + paclitaxel 50 nM): 0.74 | synergism vs additive vs antagonism effect with paclitaxel (TNBC cells [1]; PS 50 nM + paclitaxel 50 nM): (MS) (MS (0.7-0.85), moderate synergism) | combination index (CI) with methotrexate (TNBC cells [2]): 1.57 | synergism vs additive vs antagonism effect with methotrexate (TNBC cells [2]): (A) (A (1.45-3.3), antagonism) | cell inhibition (%), combination with cisplatin (TNBC BT-549 cells; PS 100 nM + cisplatin 25 μM, 24 h, light 0.96 J cm−2): 53% | effect of added cisplatin compared to cisplatin-treated cell viability (TNBC BT-549 cells; PS 100 nM + cisplatin 25 μM, light): reduced cell survival | cell survival, co-treatment with doxorubicin in the dark (TNBC BT-549 cells; PS 100 nM + doxorubicin 500 nM, 24 h, dark): 51% | cell inhibition (%), combination with doxorubicin (TNBC BT-549 cells; PS 100 nM + doxorubicin 500 nM, 24 h, light 0.96 J cm−2): 64% | cell survival, co-treatment with doxorubicin upon light (TNBC BT-549 cells; PS 100 nM + doxorubicin 500 nM, light, 1440 min, 0.1 µM): 35% and 36% | best combination partner (TNBC BT-549 cells; PS 100 nM + drug, light): with paclitaxel followed by doxorubicin or fluorouracil; also recorded: with paclitaxel, followed by doxorubicin or fluorouracil | cell inhibition (%), combination with fluorouracil (TNBC BT-549 cells; PS 100 nM + fluorouracil 25 μM, 24 h, light 0.96 J cm−2): 64% | cell viability reduction (difference) vs PS alone (TNBC BT-549 cells; [5]): 46% | effect of added fluorouracil compared to fluorouracil-treated cell viability (TNBC BT-549 cells; [5]): reduced cell survival | cell survival, co-treatment with fluorouracil upon light (TNBC BT-549 cells; PS 100 nM + fluorouracil 25 μM, light, 1440 min): 36% | cell survival, co-treatment with methotrexate in the dark (TNBC BT-549 cells; PS 100 nM + methotrexate 500 nM, 24 h, dark): 85% | cell inhibition (%), combination with methotrexate (TNBC BT-549 cells; PS 100 nM + methotrexate 500 nM, 24 h, light 0.96 J cm−2): 42% | cell inhibition (%), combination with paclitaxel (TNBC BT-549 cells; PS 100 nM + paclitaxel 50 nM, 24 h, light 0.96 J cm−2): 65% | cell survival, co-treatment with paclitaxel upon light (TNBC BT-549 cells; PS 100 nM + paclitaxel 50 nM, light, 1440 min): 35% | chemophotodynamic potency against TNBC cells, summary (TNBC BT-549 cells; PS 100 nM alone or in combination, light): better activity against TNBC cells than the starting compound MePheo | cell survival, PS alone (TNBC BT-549 cells; PS 100 nM, light 0.96 J/cm^2, 1440 min, 0.1 µM): 82% and 81% | cytotoxicity in the absence of light, PS alone (TNBC BT-549 cells; PS 500 nM, dark): No cytotoxicity | combination therapy vs monotherapy (doxorubicin) (TNBC BT-549 cells; PS + doxorubicin, light): better photodynamic effect when co-treated with doxorubicin than PS-treatment alone | combination therapy vs monotherapy (fluorouracil) (TNBC BT-549 cells; PS + fluorouracil, light): best compared to monotherapy alone and with the other PSs used | cell viability reduction (difference) vs PS alone (TNBC BT-549 cells; PS at lower concentration (CPA: 50 nM) + methotrexate 500 nM, light): 10% | cell morphology, PS co-treated with cisplatin, light (human TNBC BT-549 cells; PS 50 nM + cisplatin 25 μM, light 0.48 J/cm^2 (FIG. 18S-T)): a significant number of shrunk cells and chromatin condensation can be seen | cell morphology, PS co-treated with doxorubicin (human TNBC BT-549 cells; PS 50 nM + doxorubicin 500 nM, irradiated): No significant difference | cell morphology, PS co-treated with methotrexate, light (human TNBC BT-549 cells; PS 50 nM + methotrexate 500 nM, light (FIG. 18X-Y)): Very few cells exhibit chromatin condensation | cell morphology, PS co-treated with paclitaxel (human TNBC BT-549 cells; PS 50 nM + paclitaxel 50 nM, light (FIG. 18M-O)): shrunk cells and chromatin fragmentation are evident | cell morphology, PS-treated then light (human TNBC BT-549 cells; PS 50 nM, 24 h, light (FIG. 18F-H)): not as obvious | preferred mode of cell death (human TNBC BT-549 cells; PS co-treated with paclitaxel or cisplatin): apoptosis

CC(=O)O[C@H]1C(=O)[C@@]2(C)[C@H]([C@H](OC(=O)c3ccccc3)[C@]3(O)C[C@H](OC(=O)[C@H](O)[C@@H](NC(=O)c4ccccc4)c4ccccc4)C(C)=C1C3(C)C)[C@]1(OC(C)=O)CO[C@@H]1C[C@@H]2O [paclitaxel, reference compound]
cell death modes triggered [3]: apoptosis, autophagy, and mitotic catastrophe were triggered | ultrastructure, paclitaxel in the dark ([4]; dark (FIG. 19C)): Irregularly shaped nuclear envelope; also recorded: loss of nuclear circularity and formation of chromatin condensation | ultrastructure, paclitaxel irradiated ([4]; light 0.48 J/cm^2 (FIG. 19E)): smaller nuclei in multi-nucleated cells indicating chromosomal condensation; also recorded: split and fragmented with many atypical vesicular components in the cytosolic compartment | viability at 0.05 µM (TNBC BT-549 cells; Homo sapiens, BT-549, 24 h, paclitaxel 50 nM, dark, read-out: cell survival, drug only): 57% | viability at 0.1 µM (TNBC BT-549 cells; [6]): 49% | viability at 0.01 µM (TNBC BT-549 cells; [6]): 64% | viability at 0.1 µM (TNBC BT-549 cells; [7]): 52% | viability at 0.01 µM (TNBC BT-549 cells; [7]): 66% | average increase in cell survival upon light irradiation compared to unirradiated cells, drug only (TNBC BT-549 cells; drug alone, light vs dark): 4% | cell morphology, paclitaxel-treated (human TNBC BT-549 cells; paclitaxel 50 nM, unirradiated (FIG. 18I)): shrunk cells and chromatin fragmentation are evident; also recorded: Shrunk cells and chromatin condensation are evident
